Source: publication PMC11582101, “Unlocking the potential: unveiling tyrphostins with Michael-reactive cyanoacrylate motif as promising inhibitors of human 5-lipoxygenase” (Pflugers Archiv, 2024)
Entries after “also recorded” stand apart in the source; their conditions may differ.

biological target: T1, r5-LO_4C (Homo sapiens, UniProt P09917, C160S/C301S/C417S/C419S); assay: Covalent inhibitor binding by mass spectrometry, r5-LO_4C; settings: 20 µM protein, 100 µM compound, at least 1 h RT
T1 construct: made in house; host or cells: E. coli BL21 (DE3)
T1 sequence (P09917 2-674 C160S/C301S/C417S/C419S limits assumed): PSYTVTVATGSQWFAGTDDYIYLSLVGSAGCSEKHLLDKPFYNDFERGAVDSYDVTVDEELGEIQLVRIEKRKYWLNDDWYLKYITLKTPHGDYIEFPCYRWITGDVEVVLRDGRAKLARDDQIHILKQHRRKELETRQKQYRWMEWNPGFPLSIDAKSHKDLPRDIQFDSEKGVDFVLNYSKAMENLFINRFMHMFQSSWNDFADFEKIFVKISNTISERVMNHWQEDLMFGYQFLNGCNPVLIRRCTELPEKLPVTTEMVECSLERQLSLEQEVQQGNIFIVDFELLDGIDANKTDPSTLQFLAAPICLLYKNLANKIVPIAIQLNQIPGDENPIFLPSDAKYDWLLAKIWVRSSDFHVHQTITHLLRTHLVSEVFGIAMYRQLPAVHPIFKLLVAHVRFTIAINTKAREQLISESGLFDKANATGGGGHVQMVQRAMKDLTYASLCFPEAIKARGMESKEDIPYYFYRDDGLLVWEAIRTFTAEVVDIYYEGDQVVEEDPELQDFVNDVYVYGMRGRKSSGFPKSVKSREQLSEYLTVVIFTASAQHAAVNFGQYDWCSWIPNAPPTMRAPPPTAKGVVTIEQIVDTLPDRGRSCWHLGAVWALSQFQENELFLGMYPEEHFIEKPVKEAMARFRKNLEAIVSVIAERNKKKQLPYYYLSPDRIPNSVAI
Description: r5-LO_WT or r5-LO_4C protein was diluted to 20 µM in gel filtration buffer; 100 µM of compound was added and incubated for a minimum time of 1 h at RT before 10 µL was injected onto a 1260 Infinity HPLC (Agilent, Santa Clara, USA) using a C3 column with a flow rate of 0.4 mL/min as published before. The HPLC was coupled with a 6230 electrospray ionization TOF LC/MS detector (Agilent, Santa Clara, CA, USA). Data were acquired using the Agilent MassHunter Acquisition software and processed with the Agilent Mass Hunter BioConfirm software (B.08.00). Peak intensities were calculated and normalized to the highest count of each data set with GraphPad Prism version 7.05 (GraphPad Software, Boston, MA, USA).
Fig. 3 Mass spectra of r5-LO_WT or r5-LO_4C incubated with inhibitors (blue or red line). 20 µM r5-LO_WT (left) or r5-LO_4C (right) was incubated with 100 µM degrasyn (A), AG556 (B), tyrphostin A9 (C), AG879 (D), or CAPE (E) at RT for at least 1 h before analysis. Measurement was performed using an Agilent 1260 Infinity HPLC with an Agilent 6230 TOF LC/MS detector. Obtained data were processed using Mass Hunter BioConfirm (B.08.00), and resulted counts were normalized to the highest peak of the spectrum

Compound	inhibitor adducts to r5-LO_4C detected by mass spectrometry
N#C/C(=C\c1ccc(O)c(O)c1)C(=O)NCCCCc1ccccc1 [AG556]	only one adduct
CCC[C@H](NC(=O)/C(C#N)=C/c1cccc(Br)n1)c1ccccc1 [Degrasyn]	only one adduct

biological target: T2, 5-LO (Homo sapiens, UniProt P09917); assay: 5-LO product formation in intact PMNL; settings: not given
T2 sequence (P09917 1-674): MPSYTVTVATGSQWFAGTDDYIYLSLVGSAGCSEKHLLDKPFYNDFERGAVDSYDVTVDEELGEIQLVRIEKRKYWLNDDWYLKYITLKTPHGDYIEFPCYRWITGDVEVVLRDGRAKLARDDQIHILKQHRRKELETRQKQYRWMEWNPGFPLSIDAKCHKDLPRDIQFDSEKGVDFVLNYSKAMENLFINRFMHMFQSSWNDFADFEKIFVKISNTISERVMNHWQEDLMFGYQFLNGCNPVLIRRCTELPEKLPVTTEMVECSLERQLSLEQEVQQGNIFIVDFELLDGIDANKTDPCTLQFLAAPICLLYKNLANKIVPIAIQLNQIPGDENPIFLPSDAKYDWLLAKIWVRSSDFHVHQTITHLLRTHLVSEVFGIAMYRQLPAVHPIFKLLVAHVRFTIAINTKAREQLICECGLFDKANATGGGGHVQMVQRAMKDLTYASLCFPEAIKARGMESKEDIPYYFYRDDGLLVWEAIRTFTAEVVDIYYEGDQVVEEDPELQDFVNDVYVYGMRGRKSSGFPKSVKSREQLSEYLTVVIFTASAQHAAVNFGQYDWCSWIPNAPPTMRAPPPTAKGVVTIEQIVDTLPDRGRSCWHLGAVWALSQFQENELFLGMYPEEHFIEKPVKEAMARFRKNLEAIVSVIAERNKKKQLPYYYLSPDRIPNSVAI

Compound	IC50 [µM]
N#C/C(=C\c1ccc(O)c(O)c1)C(N)=O [(E)-AG99]	7.2
N#CC(C#N)=Cc1ccc(O)c(O)c1 [AG18]	5.4
N#CC(C#N)=Cc1cc(O)c(O)c(O)c1 [AG82]	8
N#C/C(=C\c1ccc(O)c(O)c1)C(=O)Nc1ccccc1 [AG494]	0.86
N#C/C(=C\c1ccc(O)c(O)c1)C(=O)NCCCCc1ccccc1 [AG556]	0.34
CC(C)(C)c1cc(C=C(C#N)C#N)cc(Br)c1O [AG1024]	3.1
O=C(/C=C/c1ccc(O)c(O)c1)OCCc1ccccc1 [CAPE, caffeic acid phenethyl ester]	0.23
CCC[C@H](NC(=O)/C(C#N)=C/c1cccc(Br)n1)c1ccccc1 [Degrasyn]	0.62
COc1ccc(/C=C(/C#N)c2cccnc2)cc1OC [RG13022]	> 30

biological target: T3, r5-LO_WT (Homo sapiens, UniProt P09917); assay: Covalent inhibitor binding by mass spectrometry, r5-LO_WT; settings: 20 µM protein, 100 µM compound, at least 1 h RT
T3 construct: made in house; host or cells: E. coli BL21 (DE3)
T3 sequence (P09917 1-674): T2 sequence (P09917 1-674)

Compound	inhibitor adducts to r5-LO_WT detected by mass spectrometry
N#C/C(=C\c1ccc(O)c(O)c1)C(=O)NCCCCc1ccccc1 [AG556]	covalently bound to up to four cysteines; also recorded: four peaks
O=C(/C=C/c1ccc(O)c(O)c1)OCCc1ccccc1 [CAPE, caffeic acid phenethyl ester]	did not detect mass shifts
CCC[C@H](NC(=O)/C(C#N)=C/c1cccc(Br)n1)c1ccccc1 [Degrasyn]	covalently bound to up to four cysteines; also recorded: four peaks

same assay, conditions: 20 µM r5-LO_WT, 100 µM compound

Compound	mass shift of inhibitor adduct [Da]
N#C/C(=C\c1ccc(O)c(O)c1)C(=O)NCCCCc1ccccc1 [AG556]	336
CCC[C@H](NC(=O)/C(C#N)=C/c1cccc(Br)n1)c1ccccc1 [Degrasyn]	384

biological target: T2, 5-LO; assay: 5-LO activity in PMNL homogenates; format: biochemical; set-up: endogenous in cells; host or cells: human PMNL (polymorphonuclear leukocytes); settings: sonicated PMNL, with 1 mM GSH, 20 µM AA; read-out: IC50 5-LO, PMNL homogenates + GSH
Description: Samples were kept on ice, and 1 mM ATP or 1 mM ATP/1 mM GSH was added. The inhibitors were preincubated with the cell homogenate on ice for 15 min before heating the samples at 37 °C for 30 s. […] Solid phase extraction and UPLC analysis were performed as described above.

Compound	IC50 [µM]
CCC[C@H](NC(=O)/C(C#N)=C/c1cccc(Br)n1)c1ccccc1 [Degrasyn]	4.2

same assay, conditions: sonicated PMNL, without GSH, 20 µM AA; read-out: IC50 5-LO, PMNL homogenates

Compound	IC50 [µM]
CCC[C@H](NC(=O)/C(C#N)=C/c1cccc(Br)n1)c1ccccc1 [Degrasyn]	0.89

tested on: U2OS cells; assay: not given; settings: human, 10 µM

Compound	normalized healthy cell count
N#C/C(=C\c1ccc(O)c(O)c1)C(=O)NCCCCc1ccccc1 [AG556]	around 75%
O=C(/C=C/c1ccc(O)c(O)c1)OCCc1ccccc1 [CAPE, caffeic acid phenethyl ester]	around 75%
CCC[C@H](NC(=O)/C(C#N)=C/c1cccc(Br)n1)c1ccccc1 [Degrasyn]	below 50%

same assay, conditions: human, 48 h, 10 µM

Compound	increase of mitochondrial mass
CCC[C@H](NC(=O)/C(C#N)=C/c1cccc(Br)n1)c1ccccc1 [Degrasyn]	more than 50%

biological target: T4, 12-LO (Homo sapiens, UniProt P18054); assay: 12-HETE formation in platelets; settings: 20 µM AA, 2.5 µM A23187, n = 3–6
T4 sequence (P18054 1-663): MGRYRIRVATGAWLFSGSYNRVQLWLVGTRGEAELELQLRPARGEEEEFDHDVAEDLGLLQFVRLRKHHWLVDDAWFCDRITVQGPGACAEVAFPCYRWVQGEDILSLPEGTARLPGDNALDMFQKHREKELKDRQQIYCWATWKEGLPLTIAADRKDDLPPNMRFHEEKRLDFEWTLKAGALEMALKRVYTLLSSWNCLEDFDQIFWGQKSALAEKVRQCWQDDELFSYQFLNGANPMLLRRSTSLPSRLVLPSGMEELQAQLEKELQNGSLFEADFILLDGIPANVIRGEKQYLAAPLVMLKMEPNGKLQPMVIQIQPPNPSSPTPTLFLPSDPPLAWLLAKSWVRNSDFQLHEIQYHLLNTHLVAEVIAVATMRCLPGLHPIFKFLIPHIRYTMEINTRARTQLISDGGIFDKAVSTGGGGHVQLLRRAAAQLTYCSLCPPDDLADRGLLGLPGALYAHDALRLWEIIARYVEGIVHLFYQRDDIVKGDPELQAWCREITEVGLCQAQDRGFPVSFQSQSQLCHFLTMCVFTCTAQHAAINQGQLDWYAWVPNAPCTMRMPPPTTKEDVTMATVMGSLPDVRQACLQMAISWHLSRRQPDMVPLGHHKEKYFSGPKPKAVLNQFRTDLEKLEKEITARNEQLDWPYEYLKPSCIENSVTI

Compound	IC50 for inhibition of 12-HETE formation, platelets
N#C/C(=C\c1ccc(O)c(O)c1)C(N)=O [(E)-AG99]	no inhibition
N#CC(C#N)=Cc1ccc(O)c(O)c1 [AG18]	no inhibition
N#CC(C#N)=Cc1cc(O)c(O)c(O)c1 [AG82]	no inhibition
N#C/C(=C\c1ccc(O)c(O)c1)C(=O)Nc1ccccc1 [AG494]	no inhibition
N#C/C(=C\c1ccc(O)c(O)c1)C(=O)NCCCCc1ccccc1 [AG556]	no inhibition
O=C(/C=C/c1ccc(O)c(O)c1)OCCc1ccccc1 [CAPE, caffeic acid phenethyl ester]	no inhibition
CCC[C@H](NC(=O)/C(C#N)=C/c1cccc(Br)n1)c1ccccc1 [Degrasyn]	no inhibition

tested on: U2OS cells; assay: Multiplex live-cell high-content assay; settings: 10 µM, 48 h

Compound	phenotypic properties (tubulin, mitochondrial mass, membrane permeability, cell morphology)
CCC[C@H](NC(=O)/C(C#N)=C/c1cccc(Br)n1)c1ccccc1 [Degrasyn]	additional effects on microtubules and on membrane integrity

tested on: 15-LO; assay: 15-HETE formation in intact PMNL; settings: intact PMNL, 20 µM AA, 2.5 µM A23187; (95% CI), n = 3–6

Compound	IC50 for inhibition of 15-HETE formation, PMNL
N#C/C(=C\c1ccc(O)c(O)c1)C(N)=O [(E)-AG99]	no inhibition
N#CC(C#N)=Cc1ccc(O)c(O)c1 [AG18]	no inhibition
N#CC(C#N)=Cc1cc(O)c(O)c(O)c1 [AG82]	no inhibition
CC(C)(C)c1cc(C=C(C#N)C#N)cc(Br)c1O [AG1024]	no inhibition
CCC[C@H](NC(=O)/C(C#N)=C/c1cccc(Br)n1)c1ccccc1 [Degrasyn]	moderate inhibition
COc1ccc(/C=C(/C#N)c2cccnc2)cc1OC [RG13022]	no inhibition

same assay, conditions: read-out: IC50 for inhibition of 15-HETE formation, PMNL; intact PMNL, 20 µM AA, 2.5 µM A23187; (95% CI), n = 3–6

Compound	IC50 [µM]
N#C/C(=C\c1ccc(O)c(O)c1)C(=O)Nc1ccccc1 [AG494]	22
N#C/C(=C\c1ccc(O)c(O)c1)C(=O)NCCCCc1ccccc1 [AG556]	5.1
O=C(/C=C/c1ccc(O)c(O)c1)OCCc1ccccc1 [CAPE, caffeic acid phenethyl ester]	10
CCC[C@H](NC(=O)/C(C#N)=C/c1cccc(Br)n1)c1ccccc1 [Degrasyn]	7.9
